Data published in patent US8247211B2, “Glycopeptide antibiotics” (American Cyanamid Company, priority 2001, dated 2012).
≈ marks a conversion by molar mass, not a printed value.

What was measured:
Assay in all cases: In vitro antibacterial evaluation: minimum inhibitory concentration (MIC), broth dilution method
Type in all cases: cell-based
Enterococcus sp. = settings: broth dilution, 5×10^5 CFU/mL, 18 hours at 35° C.
Outline: (§1)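 Test strains, among them recent clinical isolates carrying methicillin, penicillin and/or vancomycin resistance, were inoculated at 5×10^5 CFU/mL. A broth dilution series spanning 64-0.06 μg/mL in Muller-Hinton II […] (NCCLS M7-A2) defined the MIC as the lowest growth-inhibiting concentration.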

Escherichia coli = settings: 5×10^5 CFU/mL, 18 hours at 35° C.
Outline: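 First, organisms are seeded at 5×10^5 CFU/mL into Muller-Hinton II […]. Next, antibiotic is applied across 64-0.06 μg/mL by broth dilution (NCCLS M7-A2). Finally, the lowest inhibitory concentration is recorded as MIC.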

Staphylococcus sp. = settings: for MIC Staphylococcus aureus (ATCC 29213): strain ATCC 29213; for MIC Staphylococcus aureus (GC 1131): strain GC 1131; for MIC Staphylococcus aureus (GC 3051): strain GC 3051; for MIC Staphylococcus aureus (GC 3053): strain GC 3053; for MIC Staphylococcus aureus (GC 4541): strain GC 4541; for MIC Staphylococcus aureus (GC 4542): strain GC 4542; for MIC Staphylococcus aureus (GC 4544): strain GC 4544; for MIC Staphylococcus aureus (GC 4545): strain GC 4545
Outline: as §1

Streptococcus sp. = settings: broth dilution, 5×10^5 CFU/mL, 18 hours at 35° C.
Outline: as §1

[1] = broth dilution, 18 hours at 35° C.
[2] = strain GC 4543, broth dilution, 18 hours at 35° C.
[3] = strain GC 4546, broth dilution, 18 hours at 35° C.
[4] = strain GC 4547, broth dilution, 18 hours at 35° C.
[5] = strain GC 4548, broth dilution, 18 hours at 35° C.
[6] = strain GC 4549, broth dilution, 18 hours at 35° C.
[7] = strain GC 4551, broth dilution, 18 hours at 35° C.
[8] = strain GC 6257, broth dilution, 18 hours at 35° C.
[9] = broth dilution, 5×10^5 CFU/mL, 18 hours at 35° C.

CC(c1ccccc1)C1NC(=O)CNC(=O)C(CO)NC(=O)C(C(O)C2CNC(=N)N2C2OC(CO)C(O)C(O)C2O)NC(=O)C(C(O)C2CNC(=N)N2)NC(=O)C(Cc2ccc(OC3OC(CO)C(OC4OC5COC(CC6CCCCC6)OC5C(O)C4O)C(O)C3O)cc2)NC1=O (stereo not shown) [Example 122]
MIC Enterococccus avium (GC 4558) (Enterococcus sp.): 2 µg/mL (≈ 1.43 µM)
MIC Enterococccus faecalis (ATCC 29212) (Enterococcus sp.): 2 µg/mL (≈ 1.43 µM)
MIC Enterococccus faecalis (GC 2691) (Enterococcus sp.): 2 µg/mL (≈ 1.43 µM)
MIC Enterococccus faecalis (GC 3059) (Enterococcus sp.): 2 µg/mL (≈ 1.43 µM)
MIC Enterococccus faecalis (GC 4552) (Enterococcus sp.): 2 µg/mL (≈ 1.43 µM)
MIC Enterococccus faecalis (GC 4553) (Enterococcus sp.): 4 µg/mL (≈ 2.85 µM)
MIC Enterococccus faecalis (GC 4554) (Enterococcus sp.): 2 µg/mL (≈ 1.43 µM)
MIC Enterococccus faecalis (GC 6189) (Enterococcus sp.): 2 µg/mL (≈ 1.43 µM)
MIC Enterococccus faecium (GC 2243) (Enterococcus sp.): 2 µg/mL (≈ 1.43 µM)
MIC Enterococccus faecium (GC 4556) (Enterococcus sp.): 2 µg/mL (≈ 1.43 µM)
MIC Enterococccus faecium (GC 4557) (Enterococcus sp.): 4 µg/mL (≈ 2.85 µM)
MIC Enterococcus faecalis (GC 2242) (Enterococcus sp.): 2 µg/mL (≈ 1.43 µM)
MIC Escherichia coli (ATCC 25922) (Escherichia coli): 32 µg/mL (≈ 22.8 µM)
MIC Escherichia coli (GC 4559) (Escherichia coli): 32 µg/mL (≈ 22.8 µM)
MIC Escherichia coli (GC 4560) (Escherichia coli): 2 µg/mL (≈ 1.43 µM)
MIC Staphylococcus aureus (ATCC 29213) (Staphylococcus sp.): 2 µg/mL (≈ 1.43 µM)
MIC Staphylococcus aureus (ATCC 29213) (Staphylococcus sp.; [1]): 2 µg/mL (≈ 1.43 µM)
MIC Staphylococcus aureus (GC 1131) (Staphylococcus sp.): 2 µg/mL (≈ 1.43 µM)
MIC Staphylococcus aureus (GC 1131) (Staphylococcus sp.; [1]): 2 µg/mL (≈ 1.43 µM)
MIC Staphylococcus aureus (GC 3051) (Staphylococcus sp.): 2 µg/mL (≈ 1.43 µM)
MIC Staphylococcus aureus (GC 3051) (Staphylococcus sp.; [1]): 2 µg/mL (≈ 1.43 µM)
MIC Staphylococcus aureus (GC 3053) (Staphylococcus sp.): 2 µg/mL (≈ 1.43 µM)
MIC Staphylococcus aureus (GC 3053) (Staphylococcus sp.; [1]): 2 µg/mL (≈ 1.43 µM)
MIC Staphylococcus aureus (GC 4541) (Staphylococcus sp.): 2 µg/mL (≈ 1.43 µM)
MIC Staphylococcus aureus (GC 4541) (Staphylococcus sp.; [1]): 2 µg/mL (≈ 1.43 µM)
MIC Staphylococcus aureus (GC 4542) (Staphylococcus sp.): 2 µg/mL (≈ 1.43 µM)
MIC Staphylococcus aureus (GC 4542) (Staphylococcus sp.; [1]): 2 µg/mL (≈ 1.43 µM)
MIC Staphylococcus aureus-SMITH (GC 4543) (Staphylococcus sp.; strain GC 4543, 18 hours at 35° C.): 2 µg/mL (≈ 1.43 µM)
MIC Staphylococcus aureus-SMITH (GC 4543) (Staphylococcus sp.; [2]): 2 µg/mL (≈ 1.43 µM)
MIC Staphylococcus aureus (GC 4544) (Staphylococcus sp.): 1 µg/mL (≈ 0.713 µM)
MIC Staphylococcus aureus (GC 4544) (Staphylococcus sp.; [1]): 1 µg/mL (≈ 0.713 µM)
MIC Staphylococcus aureus (GC 4545) (Staphylococcus sp.): 2 µg/mL (≈ 1.43 µM)
MIC Staphylococcus aureus (GC 4545) (Staphylococcus sp.; [1]): 2 µg/mL (≈ 1.43 µM)
MIC Staphylococcus haemolyticus (GC 4546) (Staphylococcus sp.; strain GC 4546): 2 µg/mL (≈ 1.43 µM)
MIC Staphylococcus haemolyticus (GC 4546) (Staphylococcus sp.; [3]): 2 µg/mL (≈ 1.43 µM)
MIC Coagulase Negative Staphylococcus (GC 4547) (Staphylococcus sp.; strain GC 4547): 2 µg/mL (≈ 1.43 µM)
MIC Coagulase Negative Staphylococcus (GC 4547) (Staphylococcus sp.; [4]): 2 µg/mL (≈ 1.43 µM)
MIC Coagulase Negative Staphylococcus (GC 4548) (Staphylococcus sp.; strain GC 4548): 1 µg/mL (≈ 0.713 µM)
MIC Coagulase Negative Staphylococcus (GC 4548) (Staphylococcus sp.; [5]): 1 µg/mL (≈ 0.713 µM)
MIC Coagulase Negative Staphylococcus (GC 4549) (Staphylococcus sp.; strain GC 4549): 1 µg/mL (≈ 0.713 µM)
MIC Coagulase Negative Staphylococcus (GC 4549) (Staphylococcus sp.; [6]): 1 µg/mL (≈ 0.713 µM)
MIC Coagulase Negative Staphylococcus (GC 4551) (Staphylococcus sp.; strain GC 4551): 2 µg/mL (≈ 1.43 µM)
MIC Coagulase Negative Staphylococcus (GC 4551) (Staphylococcus sp.; [7]): 2 µg/mL (≈ 1.43 µM)
MIC Coagulase Negative Staphylococcus (GC 6257) (Staphylococcus sp.; strain GC 6257): 1 µg/mL (≈ 0.713 µM)
MIC Coagulase Negative Staphylococcus (GC 6257) (Staphylococcus sp.; [8]): 1 µg/mL (≈ 0.713 µM)
MIC Streptococcus agalactiae (GC 4564) (Streptococcus sp.): 0.12 µg/mL (≈ 0.0855 µM)
MIC Streptococcus pneumoniae (GC 1894) (Streptococcus sp.): <0.06 µg/mL
MIC Streptococcus pneumoniae (GC 4565) (Streptococcus sp.): 0.12 µg/mL (≈ 0.0855 µM)
MIC Streptococcus pneumonine (ATCC 6301) (Streptococcus sp.): <0.06 µg/mL
MIC Streptococcus pyogenes (GC 4563) (Streptococcus sp.): <0.06 µg/mL

CC(C)=CCCC(C)C1OCC2OC(OC3C(CO)OC(Oc4ccc(CC5NC(=O)C(C(C)c6ccccc6)NC(=O)CNC(=O)C(CO)NC(=O)C(C(O)C6CNC(=N)N6C6OC(CO)C(O)C(O)C6O)NC(=O)C(C(O)C6CNC(=N)N6)NC5=O)cc4)C(O)C3O)C(O)C(O)C2O1 (stereo not drawn) [Example 125, Cyclo[glycyl-β-methylphenylalanyl-O-[4-O-[4,6-O-[2,6-dimethylhept-5-en-1-yidene)hexopyranosyl]hexopyranosyl]tyrosyl-3-(2-iminoimidazolidin-4-yl)seryl-3-(3-hexopyranosyl-2-iminoimidazolidin-4-yl)serylseryl]]
MIC Enterococccus avium (GC 4558) (Enterococcus sp.): 32 µg/mL (≈ 22.6 µM)
MIC Enterococccus faecalis (ATCC 29212) (Enterococcus sp.): 32 µg/mL (≈ 22.6 µM)
MIC Enterococccus faecalis (GC 2691) (Enterococcus sp.): 32 µg/mL (≈ 22.6 µM)
MIC Enterococccus faecalis (GC 3059) (Enterococcus sp.): 32 µg/mL (≈ 22.6 µM)
MIC Enterococccus faecalis (GC 4552) (Enterococcus sp.): 32 µg/mL (≈ 22.6 µM)
MIC Enterococccus faecalis (GC 4553) (Enterococcus sp.): 32 µg/mL (≈ 22.6 µM)
MIC Enterococccus faecalis (GC 4554) (Enterococcus sp.): 32 µg/mL (≈ 22.6 µM)
MIC Enterococccus faecalis (GC 6189) (Enterococcus sp.): 32 µg/mL (≈ 22.6 µM)
MIC Enterococccus faecium (GC 2243) (Enterococcus sp.): 32 µg/mL (≈ 22.6 µM)
MIC Enterococccus faecium (GC 4556) (Enterococcus sp.): 32 µg/mL (≈ 22.6 µM)
MIC Enterococccus faecium (GC 4557) (Enterococcus sp.): 16 µg/mL (≈ 11.3 µM)
MIC Enterococcus faecalis (GC 2242) (Enterococcus sp.): 32 µg/mL (≈ 22.6 µM)
MIC Escherichia coli (ATCC 25922) (Escherichia coli): >64 µg/mL
MIC Escherichia coli (GC 4559) (Escherichia coli): >64 µg/mL
MIC Escherichia coli (GC 4560) (Escherichia coli): 32 µg/mL (≈ 22.6 µM)
MIC Coagulase Negative Staphylococcus (GC 4547) (Staphylococcus sp.; [9]): 32 µg/mL (≈ 22.6 µM)
MIC Coagulase Negative Staphylococcus (GC 4548) (Staphylococcus sp.; [9]): 32 µg/mL (≈ 22.6 µM)
MIC Coagulase Negative Staphylococcus (GC 4549) (Staphylococcus sp.; [9]): 32 µg/mL (≈ 22.6 µM)
MIC Coagulase Negative Staphylococcus (GC 4551) (Staphylococcus sp.; [9]): 32 µg/mL (≈ 22.6 µM)
MIC Coagulase Negative Staphylococcus (GC 6257) (Staphylococcus sp.; [9]): 32 µg/mL (≈ 22.6 µM)
MIC Staphylococcus aureus-SMITH (GC 4543) (Staphylococcus sp.; [9]): 32 µg/mL (≈ 22.6 µM)
MIC Staphylococcus haemolyticus (GC 4546) (Staphylococcus sp.; [9]): 32 µg/mL (≈ 22.6 µM)
MIC Staphylococcus aureus (ATCC 29213) (Staphylococcus sp.): 32 µg/mL (≈ 22.6 µM)
MIC Staphylococcus aureus (ATCC 29213) (Staphylococcus sp.; [1]): 32 µg/mL (≈ 22.6 µM)
MIC Staphylococcus aureus (GC 1131) (Staphylococcus sp.): 32 µg/mL (≈ 22.6 µM)
MIC Staphylococcus aureus (GC 1131) (Staphylococcus sp.; [1]): 32 µg/mL (≈ 22.6 µM)
MIC Staphylococcus aureus (GC 3051) (Staphylococcus sp.): 32 µg/mL (≈ 22.6 µM)
MIC Staphylococcus aureus (GC 3051) (Staphylococcus sp.; [1]): 32 µg/mL (≈ 22.6 µM)
MIC Staphylococcus aureus (GC 3053) (Staphylococcus sp.): 32 µg/mL (≈ 22.6 µM)
MIC Staphylococcus aureus (GC 3053) (Staphylococcus sp.; [1]): 32 µg/mL (≈ 22.6 µM)
MIC Staphylococcus aureus (GC 4541) (Staphylococcus sp.): 8 µg/mL (≈ 5.64 µM)
MIC Staphylococcus aureus (GC 4541) (Staphylococcus sp.; [1]): 8 µg/mL (≈ 5.64 µM)
MIC Staphylococcus aureus (GC 4542) (Staphylococcus sp.): 32 µg/mL (≈ 22.6 µM)
MIC Staphylococcus aureus (GC 4542) (Staphylococcus sp.; [1]): 32 µg/mL (≈ 22.6 µM)
MIC Staphylococcus aureus-SMITH (GC 4543) (Staphylococcus sp.; [2]): 32 µg/mL (≈ 22.6 µM)
MIC Staphylococcus aureus (GC 4544) (Staphylococcus sp.): 32 µg/mL (≈ 22.6 µM)
MIC Staphylococcus aureus (GC 4544) (Staphylococcus sp.; [1]): 32 µg/mL (≈ 22.6 µM)
MIC Staphylococcus aureus (GC 4545) (Staphylococcus sp.): 32 µg/mL (≈ 22.6 µM)
MIC Staphylococcus aureus (GC 4545) (Staphylococcus sp.; [1]): 32 µg/mL (≈ 22.6 µM)
MIC Staphylococcus haemolyticus (GC 4546) (Staphylococcus sp.; [3]): 32 µg/mL (≈ 22.6 µM)
MIC Coagulase Negative Staphylococcus (GC 4547) (Staphylococcus sp.; [4]): 32 µg/mL (≈ 22.6 µM)
MIC Coagulase Negative Staphylococcus (GC 4548) (Staphylococcus sp.; [5]): 32 µg/mL (≈ 22.6 µM)
MIC Coagulase Negative Staphylococcus (GC 4549) (Staphylococcus sp.; [6]): 32 µg/mL (≈ 22.6 µM)
MIC Coagulase Negative Staphylococcus (GC 4551) (Staphylococcus sp.; [7]): 32 µg/mL (≈ 22.6 µM)
MIC Coagulase Negative Staphylococcus (GC 6257) (Staphylococcus sp.; [8]): 32 µg/mL (≈ 22.6 µM)
MIC Streptococcus agalactiae (GC 4564) (Streptococcus sp.): 1 µg/mL (≈ 0.705 µM)
MIC Streptococcus pneumoniae (GC 1894) (Streptococcus sp.): 0.12 µg/mL (≈ 0.0847 µM)
MIC Streptococcus pneumoniae (GC 4565) (Streptococcus sp.): 0.25 µg/mL (≈ 0.176 µM)
MIC Streptococcus pneumonine (ATCC 6301) (Streptococcus sp.): 0.25 µg/mL (≈ 0.176 µM)
MIC Streptococcus pyogenes (GC 4563) (Streptococcus sp.): 0.5 µg/mL (≈ 0.353 µM)
